Results as given in patent US12077503B2, “Substituted cyclic amides and their use as herbicides” (FMC CORPORATION, priority 2015, dated 2024).

Experiments:
Type in all cases: in vivo
[1] = tested on: blackgrass (Alopecurus myosuroides); test: Test A postemergence; settings: Alopecurus myosuroides, post-emergence, 240 h, read-out: Blackgrass plant response rating (0 to 100 scale)
Summary of the method: (§1)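 Seeds sprayed preemergence with a directed soil spray, or plants at 2 to 10 cm height and one- to two-leaf stage sprayed postemergence, with test chemicals in a non-phytotoxic solvent mixture containing surfactant, in loam soil–sand blend. Injury rated visually against untreated controls after about 10 d in greenhouse, 0 (no effect) to 100 (complete control).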

[2] = tested on: ryegrass, Italian (Italian ryegrass, Lolium multiflorum); test: Test A postemergence; settings: Lolium multiflorum, post-emergence, 240 h, read-out: Ryegrass, Italian plant response rating (0 to 100 scale)
Summary of the method: as §1

[3] = tested on: Kochia (Kochia scoparia); test: Test A postemergence; settings: Bassia scoparia, post-emergence, 240 h, read-out: Kochia plant response rating (0 to 100 scale)
Summary of the method: as §1

[4] = tested on: barnyardgrass (Echinochloa crus-galli); test: Test A postemergence; settings: Echinochloa crus-galli, post-emergence, 240 h, read-out: Barnyardgrass plant response rating (0 to 100 scale)
Summary of the method: as §1

[5] = tested on: Galium (catchweed bedstraw, Galium aparine); test: Test A postemergence; settings: Galium, post-emergence, 240 h, read-out: Galium plant response rating (0 to 100 scale)
Summary of the method: as §1

[6] = tested on: giant foxtail (Setaria faberii); test: Test A postemergence; settings: Setaria faberi, post-emergence, 240 h, read-out: Foxtail, Giant plant response rating (0 to 100 scale)
Summary of the method: as §1

[7] = tested on: corn (Zea mays); test: Test A postemergence; settings: Zea mays, post-emergence, 240 h, read-out: Corn plant response rating (0 to 100 scale)
Summary of the method: as §1

[8] = tested on: ragweed (common ragweed, Ambrosia elatior); test: Test A postemergence; settings: Ambrosia artemisiifolia, post-emergence, 240 h, read-out: Ragweed plant response rating (0 to 100 scale)
Summary of the method: as §1

[9] = tested on: pigweed (Amaranthus retroflexus); test: Test A postemergence; settings: Amaranthus retroflexus, post-emergence, 240 h, read-out: Pigweed plant response rating (0 to 100 scale)
Summary of the method: as §1

[10] = tested on: wheat (Triticum aestivum); test: Test A postemergence; settings: Triticum aestivum, post-emergence, 240 h, Postemergence, 31 g ai/ha; 0 is no effect, 100 is complete control; read-out: Wheat plant response rating (0 to 100 scale)
Summary of the method: as §1

[11] = tested on: ryegrass, Italian (Italian ryegrass, Lolium multiflorum); test: Test A preemergence; settings: Lolium multiflorum, pre-emergence, 240 h, 0 to 100 scale where 0 is no effect and 100 is complete control, read-out: Ryegrass, Italian plant response rating
Summary of the method: as §1

[12] = tested on: Kochia (Kochia scoparia); test: Test A preemergence; settings: Bassia scoparia, pre-emergence, 240 h, 0 to 100 scale where 0 is no effect and 100 is complete control, read-out: Kochia plant response rating
Summary of the method: as §1

[13] = tested on: barnyardgrass (Echinochloa crus-galli); test: Test A preemergence; settings: Echinochloa crus-galli, pre-emergence, 240 h, 0 to 100 scale where 0 is no effect and 100 is complete control, read-out: Barnyardgrass plant response rating
Summary of the method: as §1

[14] = tested on: giant foxtail (Setaria faberii); test: Test A preemergence; settings: Setaria faberi, pre-emergence, 240 h, 0 to 100 scale where 0 is no effect and 100 is complete control, read-out: Foxtail, Giant plant response rating
Summary of the method: as §1

[15] = tested on: ragweed (common ragweed, Ambrosia elatior); test: Test A preemergence; settings: Ambrosia artemisiifolia, pre-emergence, 240 h, 0 to 100 scale where 0 is no effect and 100 is complete control, read-out: Ragweed plant response rating
Summary of the method: as §1

[16] = tested on: pigweed (Amaranthus retroflexus); test: Test A preemergence; settings: Amaranthus retroflexus, pre-emergence, 240 h, 0 to 100 scale where 0 is no effect and 100 is complete control, read-out: Pigweed plant response rating
[17] = tested on: sedge, umbrella (small-flower umbrella sedge, Cyperus difformis); test: Test B flooded paddy test; settings: Cyperus difformis, 250 g ai/ha, Flood; 0 to 100 scale where 0 is no effect and 100 is complete control; read-out: Sedge, Umbrella plant response rating
Summary of the method: (§2)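 Flooding to 3 cm over soil accompanied treatment, which consisted of adding compound to the standing water around 2-leaf plants; depth was then maintained. Visual assessment versus controls followed at 13 to 15 d (scale 0–100, 0 meaning no effect).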

[18] = tested on: rice (Oryra sativa); test: Test B flooded paddy test; settings: Oryza sativa, 250 g ai/ha, Flood; 0 to 100 scale where 0 is no effect and 100 is complete control; read-out: Rice plant response rating
Summary of the method: as §2

[19] = tested on: barnyardgrass (Echinochloa crus-galli); test: Test B flooded paddy test; settings: Echinochloa crus-galli, 250 g ai/ha, Flood; 0 to 100 scale where 0 is no effect and 100 is complete control; read-out: Barnyardgrass plant response rating
Summary of the method: as §2

[20] = tested on: ducksalad (Heteranthera limosa); test: Test B flooded paddy test; settings: Heteranthera limosa, 250 g ai/ha, Flood; 0 to 100 scale where 0 is no effect and 100 is complete control; read-out: Ducksalad plant response rating
Summary of the method: as §2

[21] = 125 g ai/ha, postemergence, visual injury vs untreated controls after approx. 10 d, 0 = no effect, 100 = complete control
[22] = Postemergence, 31 g ai/ha, 0 is no effect, 100 is complete control
[23] = 125 g ai/ha, preemergence, visual injury rating, approximately 10 d

Cn1ccc2ccc([C@H]3CNC(=O)[C@@H]3C(=O)Nc3ccccc3F)cc21 [Compound 1264]
0%: pest or weed control at 125 g/ha [1, 21] | pest or weed control at 31 g/ha [1, 22] | pest or weed control at 125 g/ha [2, 21] | pest or weed control at 31 g/ha [2, 22] | pest or weed control at 125 g/ha [3, 21] | pest or weed control at 31 g/ha [3, 22] | pest or weed control at 125 g/ha [4, 21] | pest or weed control at 31 g/ha [4, 22] | pest or weed control at 125 g/ha [5, 21] | pest or weed control at 31 g/ha [5, 22] | pest or weed control at 125 g/ha [6, 21] | pest or weed control at 31 g/ha [6, 22] | plant injury at 125 g/ha [7, 21] | plant injury at 31 g/ha [7, 22] | pest or weed control at 125 g/ha [8, 21] | pest or weed control at 31 g/ha [8, 22] | pest or weed control at 125 g/ha [9, 21] | pest or weed control at 31 g/ha [9, 22] | plant injury at 31 g/ha [10] | pest or weed control at 31 g/ha ([11]; 31 g ai/ha, Preemergence) | pest or weed control at 125 g/ha [11, 23] | pest or weed control at 31 g/ha ([12]; 31 g ai/ha, Preemergence) | pest or weed control at 125 g/ha [12, 23] | pest or weed control at 31 g/ha ([13]; 31 g ai/ha, Preemergence) | pest or weed control at 125 g/ha [13, 23] | pest or weed control at 31 g/ha ([14]; 31 g ai/ha, Preemergence) | pest or weed control at 125 g/ha [14, 23] | pest or weed control at 31 g/ha ([15]; 31 g ai/ha, Preemergence) | pest or weed control at 125 g/ha [15, 23] | pest or weed control at 31 g/ha ([16]; 31 g ai/ha, Preemergence) | pest or weed control at 125 g/ha [16, 23] | pest or weed control at 250 g/ha [17] | pest or weed control at 250 g/ha [18] | pest or weed control at 250 g/ha [19] | pest or weed control at 250 g/ha [20]
